Consider 6 compounds from US7863315B2, “2-indolinone derivatives as selective histone deacetylase inhibitors” (Shenzhen Chipscreen Biosciences, Ltd., priority 2008, dated 2011).

In test [1] the test system is A549 human lung cancer cell line. As to the kind of experiment: Anti-cell proliferation (MTS), A549. The conditions noted are these: 72 hours. It counts as cell-based. The procedure: (§1) Measurement of in vivo cell proliferation:
(§2) Tumor cells were trypsinized and plated into 96-well plates at 3,000 per well and incubated in complete medium with 10% FBS for 24 hours. Compounds were added over a final concentration range of 100 μmol/L to 100 nmol/L in 0.1% DMSO and incubated for 72 hours in complete medium. The effects on proliferation were determined by addition of MTS reagent (Promega) according to the instruction, incubation for 2 hours at 37° C. in CO2 incubator, and record the absorbance at 490 nm using an ELISA plate reader.

Test [2] deals with lysine acetylation. As to the kind of experiment: ELISA assay of acetylation of lysine in HeLa cells. The test is classed as cell-based. The conditions noted are these: Homo sapiens, M-HeLa, 24 hours. The source says: Measurement of acetylation activity in cells on substrates:
ELISA Assay of Acetylation of Lysine
This assay is used to measure in vivo inhibition of HDAC6 in a cytoblot assay.
Materials and Reagent: • 1. 24-well tissue culture • 2. DMEM Medium containing 10% FBS • 3. 96-well white plate • 4. HeLa cell line • 5. M-PER Mammalian Protein Extraction Reagent (Pierce) • 6. Bradford assay reagent • 7. Acetylated-lysine polyclonal Antibody (Cell Signaling) • 8. HRP-labeled anti-rabbit IgG (Upstate) • 9. Coating Buffer: 15 mM Na2CO3, 35 mM NaHCO3 (pH 9.6) • 10. 10×PBS: 0.58M Na2HPO4, 0.17M NaH2PO4, 0.68M NaCl (pH 7.4) • 11. Wash Buffer:1×PBS containing 0.05% Tween-20 (PBST) • 12. Blocking Buffer:10 mg/ml bocine serum albumin (BSA) in PBS • 13. Antibody Dilution Buffer: 5 mg/ml BSA in PBST • 14. Enhanced chemiluminescence (ECL) (Amersham)
Procedure for performing the assay in 96-well plate: • 1. HeLa cells were seeded at a density of 60000 cells/500 μl/well in 24-well plate and incubated at 37° C. for 24 hours. • 2. Compounds were added and incubated for 24 hours at 37° C. • 3. Culture medium was removed, then washes the cells twice with ice-cold PBS. • 4. Add 100 μl/well of Protein Extraction Reagent and gently shake the mixture for 5 minutes. • 5. Collect the lysate to a 96-well plate respectively. Determine the concentration of protein by Bradford assay. • 6. Coat the wells of a 96-well white plate with 100 μl/well of 2.5 μg whole cell protein in Coating Buffer by incubating overnight at 4° C. • 7. Discard the uncoated proteins and wash the coated wells three times with 200 μl/well of PBST. • 8. Block coated wells by incubating the plate with 200 μl/well of Blocking Buffer for 1 hour at 37° C. • 9. Wells were aspirated and washed three times with 200 μl/well of PBST. • 10. After aspirating, 50 μl/well of Antibody Dilution Buffer containing acetylated-lysine polyclonal antibody (1:1000) were added to each well and incubated for 2 hour at 37° C. • 11. Wells were aspirated and washed three times with 200 μl/well of PBST. • 12. 50 μl/well of Antibody Dilution Buffer containing HRP-labeled anti-rabbit IgG (1:2000) were added to each well and incubated for 2 hour at 37° C. • 13. Wells were aspirated and washed three times with 200 μl/well of PBST. • 14. Wells were washed three times with 200 μl/well of purified water. • 15. Add 50 μl/well of ECL mixture, then read the plates on the plate reader.

For test [3], the system named is HDAC7 (Nur77 reporter gene). The experiment in a line: HDAC subtype reporter gene assay, Nur77-promoter luciferase in HeLa cells. It counts as cell-based. The settings on record: Homo sapiens, M-HeLa, read-out: % of SAHA Response for HDAC7 at 10 μM (Nur77 reporter gene), 24 hours. (In general: Reporter assays use an easily measured gene product as a stand-in for the process of interest.)

The subject of test [4] is Hut-78 human T lymphoma cell line. As to the kind of experiment: Anti-cell proliferation (MTS), Hut-78. The test is classed as cell-based. The conditions noted are these: HuT78, 72 hours. The procedure: as §1, §2
Test [5] has as its system HL60 human leukemia cell line. The experiment in a line: Anti-cell proliferation (MTS), HL60. It counts as cell-based. The settings on record: HL-60, 72 hours. The procedure: as §1, §2
Test [6] relates to HDAC4/5 (MEF2 reporter gene). The experiment in a line: HDAC subtype reporter gene assay, MEF-binding element (MEF2) luciferase in HeLa cells. It counts as cell-based. The settings on record: Homo sapiens, M-HeLa, read-out: % of SAHA Response for HDAC4/5 at 10 μM (MEF2 reporter gene), 24 hours.
Test [7] concerns HDAC class I (p21 reporter gene). The experiment in a line: HDAC subtype reporter gene assay, p21-promoter luciferase in HeLa cells. The settings on record: Homo sapiens, M-HeLa, read-out: % of SAHA Response for HDAC class I at 10 μM (p21 reporter gene), 24 hours. It counts as cell-based.
Test [8] has as its system total HDAC enzyme (HeLa extract). The experiment in a line: In vitro inhibition of total HDAC enzyme activity (HDAC Fluorimetric Assay/Drug Discovery Kit, BIOMOL). It counts as biochemical, human. The procedure: Measurement of in vitro inhibition of total HDAC enzyme activity:
The in vitro inhibition of total HDAC enzyme was determined by HDAC Fluorimetric Assay/Drug Discovery Kit (BIOMOL) according to manufacture's instruction. • 1. Add Assay buffer, diluted trichostatin A or test inhibitor to appropriate wells of the microtiter plate. Following table lists examples of various assay types and the additions required for each test.
• 2. Add diluted HeLa extract or other HDAC sample to all wells except those that are to be “No Enzyme Controls” (Blank). • 3. Allow diluted Fluor de LyS™ Substrate and the samples in the microtiter plate to equilibrate to assay temperature (25° C.). • 4. Initiate HDAC reactions by adding diluted substrate (25 μl) to each well and mixing thoroughly. • 5. Allow HDAC reactions to proceed for desired length of time and then stop them by addition of Fluor de Lys™ Developer (50 μl). Incubate plate at room temperature (25° C.) for 10-15 min. • 6. Read samples in a microtiter-plate reading fluorimeter capable of excitation at a wavelength in the range 350-380 nm and detection of emitted light in the range 440-460 nm.

Test [9] deals with HeLa human cervical cancer cell line. The experiment in a line: Anti-cell proliferation (MTS), HeLa. The conditions noted are these: 72 hours. The test is classed as cell-based. The procedure: as §1, §2

As usually defined, the GI50 is the concentration giving 50% growth inhibition. For orientation: fold induction means the signal under treatment as a multiple of the control signal.

With `Nc1ccccc1NC(=O)CCCCCNC(=O)c1ccc(/C=C2\C(=O)Nc3ccc(F)cc32)cc1` [Example 39, 6-(4-((5-fluoro-2-oxoindolin-3-ylidene)methyl)benzamido)-N-(2-aminophenyl)hexanamide], the GI50 was 28.8 µM in test [1], 4.17 µM in test [4], 4.17 µM in test [5] and 22.9 µM in test [9]. The fold induction at 10 µM in test [2] is 1.73. Besides, the Emax at 10 µM in [3] was found to be 29%; in test [6], 45%; in test [7] it was 67%. Also, the “% of Inhibition on Total HDAC Enzyme at 30 μM” value (“% of Inhibition” for short) in [8] came to 31%.
On to `Nc1cc(F)ccc1NC(=O)CCCCCNC(=O)c1ccc(/C=C2\C(=O)Nc3ccc(F)cc32)cc1` [Example 40, 6-(4-((5-fluoro-2-oxoindolin-3-ylidene)methyl)benzamido)-N-(2-amino-4-fluorophenyl)hexanamide], for which the GI50 in test [1] came to 36.3 µM; in test [4], 4.17 µM; in [5], 5.75 µM; in test [9] it was 33.9 µM. This compound also came in with a fold induction at 10 µM in test [2] of 1.5. The Emax at 10 µM came to 9% in [3], 56% in test [6] and 19% in [7]. In [8], the “% of Inhibition” value was 22%.
On to `Nc1ccccc1NC(=O)CCCCCNC(=O)c1cccc(/C=C2\C(=O)Nc3ccc(F)cc32)c1` [Example 44, 6-(3-((5-fluoro-2-oxoindolin-3-ylidene)methyl)benzamido)-N-(2-aminophenyl)hexanamide], for which the GI50 is 19.5 µM in test [1], 4.37 µM in [4], 2.95 µM in test [5] and 11 µM in [9]. The same compound registered a fold induction at 10 µM in [2] of 1.42. The Emax at 10 µM came to 35% in test [3], 85% in test [6] and 97% in [7]. Besides, in [8], the “% of Inhibition” value came to 30%.
`Nc1cc(F)ccc1NC(=O)CCCCNC(=O)c1cccc(/C=C2\C(=O)Nc3ccc(F)cc32)c1` [Example 50, 5-(3-((5-fluoro-2-oxoindolin-3-ylidene)methyl)benzamido)-N-(2-amino-4-fluorophenyl)pentanamide]: the GI50 in [1] amounted to 35.5 µM; in [4], 6.76 µM; in test [5] it was 3.98 µM; in [9], 20.9 µM. Besides, the fold induction at 10 µM in [2] turned out to be 1.08. Moreover, the Emax at 10 µM in test [3] worked out at 12%; in test [6], 43%; in [7], 7%. Moreover, the “% of Inhibition” value in test [8] is recorded as −3%.
For the compound `Nc1ccccc1NC(=O)CCCCCCCNC(=O)c1cccc(/C=C2\C(=O)Nc3ccc(F)cc32)c1` [Example 54, 8-(3-((5-fluoro-2-oxoindolin-3-ylidene)methyl)benzamido)-N-(2-aminophenyl)octanamide], the GI50 came out at 24 µM in test [1], 3.89 µM in test [4], 2.46 µM in [5] and 18.2 µM in test [9]. For the same compound, in test [2], the fold induction at 10 µM amounted to 1.34. The Emax at 10 µM in [3] was 25%; in test [6], 53%; in test [7], 72%. Further, in [8], the “% of Inhibition” value was 40%.
As for `O=C(CCCCCCCNC(=O)c1cccc(/C=C2\C(=O)Nc3ccc(F)cc32)c1)NO` [Example 56, 8-(3-((5-fluoro-2-oxoindolin-3-ylidene)methyl)benzamido)-N-hydroxyoctanamide], the GI50 was 28.8 µM in [1], 4.57 µM in [4], 5.62 µM in test [5] and 17.4 µM in test [9]. This compound also registered a fold induction at 10 µM in test [2] of 1.7. Also, the Emax at 10 µM is 27% in [3], 62% in test [6] and 65% in test [7]. Also, in test [8], the “% of Inhibition” value was found to be 93%.
